Marks after values point to notes of the source that are not given here. Starred links: 1 amine or outer side, 2 acyl side, 3 side chain; linkers in the order of their positions; H or OH if unused. Non-standard residues stand in square brackets, D forms with d. Residues, ends and D or L forms follow the SMILES beside them. Groups on a side chain read outwards from the residue. *: point of attachment. C20 diacid = O=C(O)CCCCCCCCCCCCCCCCCCC(=O)*; C18 diacid = O=C(O)CCCCCCCCCCCCCCCCC(=O)*; γGlu = O=C(O)[C@H](CCC(=O)[*:2])N[*:1]; εLys = N[C@@H](CCCCN[*:1])C(=O)[*:2]; Aib = CC(C)(N)C(=O)O

The series in a line: Pharmacokinetic study in dogs after oral dosing of tablets with SNAC. The class given is in vivo, Beagle dogs. On the procedure:
The purpose of this example is to determine the half-life and plasma exposure in vivo of the compounds of the present invention after p.o. administration to beagle dogs, i.e. the terminal half-life and concentration of test substance that reaches circulation with time. This is done in a pharmacokinetic (PK) study, where these parameters of the compound in question are determined. By terminal half-life is generally meant the period of time it takes to halve a certain plasma concentration, measured after the initial distribution phase.
The amount of SNAC in the tablet composition was 100-300 mg, the amount of magnesium stearate in the tablet composition was 7.7 mg, and the target amount of each test substance in the tablet composition was 3-4 mg.
Male beagle dogs, 1-7 years of age and weighing 9-17 kg during the study period, were included in the study. The dogs were dosed in a fasting state. The dogs were group housed in pens (12 hours light: 12 hours dark), and fed individually and restrictedly once daily with Royal Canin Medium Adult dog food (Royal Canin Products, China Branch, or Brogaarden A/S, Denmark). The dogs were used for repeated PK studies with a suitable wash-out period between successive dosing. An appropriate acclimatization period was given prior to initiation of the first PK study. All handling, dosing, and blood sampling of the animals were performed by trained and skilled staff. Before the studies, the dogs were fasted overnight and from 0 to 4 hours after dosing. The dogs were restricted to water 1 hour before dosing until 4 hours after dosing, but otherwise had ad libitum access to water during the whole period.
The compositions were administered by a single oral dosing to the dogs in groups of 6-8 dogs. […] The mouth was then closed, and 10 mL of tap water was given by syringe or gavage to facilitate swallowing of the tablet.
For each blood sample time point, approximately 0.8 mL of whole blood was collected in a 1.5 mL EDTA-coated tube, which was gently turned to mix the sample with EDTA. Blood samples were collected in EDTA buffer (8 mM) and then centrifuged at 4° C. and 2000g for 10 minutes. Plasma was pipetted into Micronic tubes on dry ice, and kept at −20° C. or lower until analysis. Blood samples were taken as appropriate, for example from a venflon in the cephalic vein in the front leg for the first 2 hours and then with syringe from the jugular vein for the rest of the time points. The first few drops were allowed to drain from the venflon to avoid heparin saline from the venflon in the sample.
All blood samples were collected into test tubes containing EDTA for stabilisation and kept on ice until centrifugation. Plasma was separated from whole blood by centrifugation and the plasma was stored at −20° C. or lower until analysis.
The plasma was analysed for test substance using LC-MS (Liquid Chromatography-Mass Spectrometry) as known to the person skilled in the art. […] RP-HPLC separation was achieved using a linear gradient of 1:1 acetonitrile/methanol in 1% aqueous formic acid using either: a Phenomenex Onyx Monolithic C18 column (50×2.0 mm) and a flow rate of 0.8 mL/min at 30° C.; or an Agilent Poroshell 120 SB-C18 column (50×2.1 mm, 2.7 μm) at a flow rate of 0.4 mL/min at 60° C. The mass spectrometer was operated in either positive ionization SIM mode or positive ionization PRM mode.
For each individual animal, a plasma concentration-time profile was analysed by a non-compartmental model in Pharsight Phoenix WinNonLin ver. 6.4 software or other relevant software for PK analysis, and the resulting terminal half-life (t1/2), maximum plasma concentration per dose (Cmax/D), time for maximum plasma concentration (tmax), and area under the curve to infinity per dose (AUC/D) were determined. Summary statistics of pharmacokinetic results were presented as median (for tmax), harmonic mean ([…]), or arithmetic mean (Cmax, AUC).

Regarding `CC[C@H](C)[C@H](NC(=O)[C@H](Cc1ccccc1)NC(=O)[C@H](CCC(=O)O)NC(=O)[C@H](CCCNC(=N)N)NC(=O)[C@H](C)NC(=O)[C@H](C)NC(=O)[C@H](CCC(N)=O)NC(=O)[C@H](CCCCNC(=O)[C@@H](N)CCCCNC(=O)[C@@H](N)CCCCNC(=O)CC[C@H](NC(=O)CCCCCCCCCCCCCCCCC(=O)O)C(=O)O)NC(=O)[C@H](CCC(=O)O)NC(=O)[C@H](CC(C)C)NC(=O)[C@H](CC(C)C)NC(=O)[C@@H](NC(=O)[C@H](CO)NC(=O)[C@H](Cc1ccc(O)cc1)NC(=O)[C@H](CC(=O)O)NC(=O)[C@H](CO)NC(=O)[C@@H](NC(=O)[C@H](Cc1ccccc1)NC(=O)[C@@H](NC(=O)CNC(=O)[C@H](CCC(=O)O)NC(=O)C(C)(C)NC(=O)[C@@H](N)Cc1ccc(O)cc1)[C@@H](C)O)[C@@H](C)O)[C@@H](C)CC)C(=O)N[C@@H](CCC(=O)O)C(=O)N[C@@H](Cc1c[nH]c2ccccc12)C(=O)N[C@@H](CC(C)C)C(=O)N[C@@H](CC(C)C)C(=O)N[C@@H](C)C(=O)NCC(=O)NCC(=O)N1CCC[C@H]1C(=O)N[C@@H](CO)C(=O)N[C@@H](CO)C(=O)NCC(=O)N[C@@H](C)C(=O)N1CCC[C@H]1C(=O)N1CCC[C@H]1C(=O)N1CCC[C@H]1C(=O)N[C@@H](CO)C(=O)O` [Compound No. 31] (H-Y[Aib]EGTFTSDYSILLEK([εLys-εLys-γGlu-C18 diacid])QAAREFIEWLLAGGPSSGAPPPS-OH), the Cmax/Dose (dog, in vivo, po) is given as 0.35** kg/L.

As for `CC[C@H](C)[C@H](NC(=O)[C@H](Cc1ccccc1)NC(=O)[C@H](CCC(=O)O)NC(=O)[C@H](CCCNC(=N)N)NC(=O)[C@H](C)NC(=O)[C@H](C)NC(=O)[C@H](CCC(N)=O)NC(=O)[C@H](CCCCNC(=O)[C@@H](N)CCCCNC(=O)[C@@H](N)CCCCNC(=O)CC[C@H](NC(=O)CCCCCCCCCCCCCCCCCCC(=O)O)C(=O)O)NC(=O)[C@H](CCC(=O)O)NC(=O)[C@H](CC(C)C)NC(=O)[C@H](Cc1ccc(O)cc1)NC(=O)[C@@H](NC(=O)[C@H](CO)NC(=O)[C@H](Cc1ccc(O)cc1)NC(=O)[C@H](CC(=O)O)NC(=O)[C@H](CO)NC(=O)[C@@H](NC(=O)[C@H](Cc1ccccc1)NC(=O)[C@@H](NC(=O)CNC(=O)[C@H](CCC(=O)O)NC(=O)C(C)(C)NC(=O)[C@@H](N)Cc1ccc(O)cc1)[C@@H](C)O)[C@@H](C)O)[C@@H](C)CC)C(=O)N[C@@H](CC(N)=O)C(=O)N[C@@H](Cc1c[nH]c2ccccc12)C(=O)N[C@@H](CC(C)C)C(=O)N[C@@H](CC(C)C)C(=O)N[C@@H](C)C(=O)NCC(=O)NCC(=O)N1CCC[C@H]1C(=O)N[C@@H](CO)C(=O)N[C@@H](CO)C(=O)NCC(=O)N[C@@H](C)C(=O)N1CCC[C@H]1C(=O)N1CCC[C@H]1C(=O)N1CCC[C@H]1C(=O)N[C@@H](CO)C(=O)O` [Compound No. 16] (H-Y[Aib]EGTFTSDYSIYLEK([εLys-εLys-γGlu-C20 diacid])QAAREFINWLLAGGPSSGAPPPS-OH), under “dog, in vivo, po”, the AUC/Dose worked out at 8.6 kg·h/L and the Cmax/Dose was found to be 0.21 kg/L. As for `CC[C@H](C)[C@H](NC(=O)[C@H](Cc1ccccc1)NC(=O)[C@H](CCC(=O)O)NC(=O)[C@H](CCCNC(=N)N)NC(=O)[C@H](C)NC(=O)[C@H](C)NC(=O)[C@H](CCC(N)=O)NC(=O)[C@H](CCCCNC(=O)[C@@H](N)CCCCNC(=O)[C@@H](N)CCCCNC(=O)CC[C@H](NC(=O)CCCCCCCCCCCCCCCCC(=O)O)C(=O)O)NC(=O)[C@H](CCC(=O)O)NC(=O)[C@H](CC(C)C)NC(=O)[C@H](CC(C)C)NC(=O)[C@@H](NC(=O)[C@H](CO)NC(=O)[C@H](Cc1ccc(O)cc1)NC(=O)[C@H](CC(=O)O)NC(=O)[C@H](CO)NC(=O)[C@@H](NC(=O)[C@H](Cc1ccccc1)NC(=O)[C@@H](NC(=O)CNC(=O)[C@H](CCC(=O)O)NC(=O)C(C)(C)NC(=O)[C@@H](N)Cc1ccc(O)cc1)[C@@H](C)O)[C@@H](C)O)[C@@H](C)CC)C(=O)N[C@@H](CCC(=O)O)C(=O)N[C@@H](Cc1c[nH]c2ccccc12)C(=O)N[C@@H](CC(C)C)C(=O)N[C@@H](CC(C)C)C(=O)N[C@@H](CCCNC(=N)N)C(=O)NCC(=O)NCC(=O)N1CCC[C@H]1C(=O)N[C@@H](CCC(=O)O)C(=O)N[C@@H](CO)C(=O)NCC(=O)N[C@@H](C)C(=O)N1CCC[C@H]1C(=O)N1CCC[C@H]1C(=O)N1CCC[C@H]1C(=O)N[C@@H](CO)C(=O)O` [Compound No. 28] (H-Y[Aib]EGTFTSDYSILLEK([εLys-εLys-γGlu-C18 diacid])QAAREFIEWLLRGGPESGAPPPS-OH), the Cmax/Dose (oral tablet, 300 mg SNAC, 3 mg test substance, Beagle dogs, arithmetic mean) is 0.36** kg/L.

`CC[C@H](C)[C@H](NC(=O)[C@H](Cc1ccccc1)NC(=O)[C@H](CCC(=O)O)NC(=O)[C@H](CCC(N)=O)NC(=O)[C@H](C)NC(=O)[C@H](C)NC(=O)[C@H](CCC(N)=O)NC(=O)[C@H](CCCCNC(=O)[C@@H](N)CCCCNC(=O)[C@@H](N)CCCCNC(=O)CC[C@H](NC(=O)CCCCCCCCCCCCCCCCC(=O)O)C(=O)O)NC(=O)[C@H](CCC(=O)O)NC(=O)[C@H](CC(C)C)NC(=O)[C@H](CC(C)C)NC(=O)[C@@H](NC(=O)[C@H](CO)NC(=O)[C@H](Cc1ccc(O)cc1)NC(=O)[C@H](CC(=O)O)NC(=O)[C@H](CO)NC(=O)[C@@H](NC(=O)[C@H](Cc1ccccc1)NC(=O)[C@@H](NC(=O)CNC(=O)[C@H](CCC(=O)O)NC(=O)C(C)(C)NC(=O)[C@@H](N)Cc1ccc(O)cc1)[C@@H](C)O)[C@@H](C)O)[C@@H](C)CC)C(=O)N[C@@H](CCC(=O)O)C(=O)N[C@@H](Cc1c[nH]c2ccccc12)C(=O)N[C@@H](CC(C)C)C(=O)N[C@@H](CC(C)C)C(=O)N[C@@H](C)C(=O)NCC(=O)NCC(=O)N1CCC[C@H]1C(=O)N[C@@H](CO)C(=O)N[C@@H](CO)C(=O)NCC(=O)N[C@@H](C)C(=O)N1CCC[C@H]1C(=O)N1CCC[C@H]1C(=O)N1CCC[C@H]1C(=O)N[C@@H](CO)C(=O)O` [Compound No. 29] (H-Y[Aib]EGTFTSDYSILLEK([εLys-εLys-γGlu-C18 diacid])QAAQEFIEWLLAGGPSSGAPPPS-OH): the Cmax/Dose (dog, in vivo, po) is 0.26** kg/L. Take `CC[C@H](C)[C@H](NC(=O)[C@H](Cc1ccccc1)NC(=O)[C@H](CCC(=O)O)NC(=O)[C@H](Cc1c[nH]cn1)NC(=O)[C@H](C)NC(=O)[C@H](C)NC(=O)[C@H](CCC(N)=O)NC(=O)[C@H](CCCCNC(=O)[C@@H](N)CCCCNC(=O)[C@@H](N)CCCCNC(=O)CC[C@H](NC(=O)CCCCCCCCCCCCCCCCC(=O)O)C(=O)O)NC(=O)[C@H](CCC(=O)O)NC(=O)[C@H](CC(C)C)NC(=O)[C@H](CC(C)C)NC(=O)[C@@H](NC(=O)[C@H](CO)NC(=O)[C@H](Cc1ccc(O)cc1)NC(=O)[C@H](CC(=O)O)NC(=O)[C@H](CO)NC(=O)[C@@H](NC(=O)[C@H](Cc1ccccc1)NC(=O)[C@@H](NC(=O)CNC(=O)[C@H](CCC(=O)O)NC(=O)C(C)(C)NC(=O)[C@@H](N)Cc1ccc(O)cc1)[C@@H](C)O)[C@@H](C)O)[C@@H](C)CC)C(=O)N[C@@H](CC(N)=O)C(=O)N[C@@H](Cc1c[nH]c2ccccc12)C(=O)N[C@@H](CC(C)C)C(=O)N[C@@H](CC(C)C)C(=O)N[C@@H](C)C(=O)NCC(=O)NCC(=O)N1CCC[C@H]1C(=O)N[C@@H](CO)C(=O)N[C@@H](CO)C(=O)NCC(=O)N[C@@H](C)C(=O)N1CCC[C@H]1C(=O)N1CCC[C@H]1C(=O)N1CCC[C@H]1C(=O)N[C@@H](CO)C(=O)O` [Compound No. 26] (H-Y[Aib]EGTFTSDYSILLEK([εLys-εLys-γGlu-C18 diacid])QAAHEFINWLLAGGPSSGAPPPS-OH): the Cmax/Dose (dog, in vivo, po) was 0.49* kg/L.

These data come from patent publication US20230272029A1, “CO-AGONISTS AT GLP-1 AND GIP RECEPTORS SUITABLE FOR ORAL DELIVERY” (Novo Nordisk A/S, priority 2020, published 2023).
